Experiments:
Assay type in all cases: cell-based, human
glioma cell line U118MG = experiment: Example 2: culture in Medium A-C with BOHB and/or Acac (CellTiter-Glo)
Procedure: (§1) The ketone bodies acetoacetate (Acac), BOHB and acetone are produced by the liver during fasting or starvation. BOHB is the major ketone body in mammals, while Acac constitutes around 20%.
(§2) Cells were maintained in RPMI-1640 medium (31870-025 GIBCO) with the addition of 10% serum, 200 mM L-glutamine and 1% penicillin-streptomycin (PEST) in humidified chambers at 37° C. and 5% CO2. For hypoxic conditions (5% O2), cells were maintained in a Galaxy 14 S CO2 incubator (Eppendorf) where N2 was used to adjust the O2 level to 5%.
(§3) Medium B and C were prepared from RPMI1640 modified medium powder without L-glutamine, glucose and amino acids (R9010-01, US Biological Life Sciences). For 1L medium, 7.4 g powder was dissolved in 900 ml sterile water without heating and 2 g sodium bicarbonate was added. Amino acids listed in Table 5 were added to the same concentration as in full RPMI1640 medium (Table 5). After all additions, the medium was sterilized by filtering through 0.22 um membranes and divided into two bottles.
(§4) To model Cancer Dialysis conditions in Medium C, the levels of these nutrients were reduced to 50% of the physiological levels. As for Medium A, 1% PEST and 10% dialyzed serum were added to Medium B and C. Sodium pyruvate, that is a common addition in cell culture medium, was not present in any of the used media.
(§5) Stock solutions of DL-β-Hydroxybutyric acid sodium salt (H6501, Sigma Aldrich) and Lithium Acetoacetate (A8509, Sigma Aldrich) were prepared in water, sterile filtered, aliquoted and stored at −20° C. Lithium Chloride (L7026, Sigma Aldrich) was used as a control for the addition of Lithium in the Li-Acac.
(§6) CellTiter-Glo Luminescent cell viability assay (Promega) was used as a readout of cell numbers according to the manufacturers' instructions. In experiments shown in FIG. 7-8, double plates were seeded and treated. One set of plates was used for collection of medium for lactate measurement (see below) and the CellTiterGlo-assay. The other set of plates was frozen at −80° C. at the end of the experiment. The frozen plates were intended for the CyQuant cell proliferation assay (Thermo Fisher) that measures the amount of DNA per well. Analysis of the amounts of cells by both CellTiterGlo and CyQuant assays would ensure that effects of the culture conditions on viability or growth rate would not be concealed by simultaneous changes in ATP-levels per cell.
(§7) Next, it was decided to also include Acac in the study and analyze the viability of cells cultured in the presence of BOHB and Acac alone or in combination in Medium A-C. The experiment was performed at 21% and 5% O2. The experiments were made with glioma cell lines A172 and U118MG.
(§8) Being a chiral molecule, BOHB exists as two enantiomers, D-and L-BOHB. D-BOHB is normally produced and metabolized in humans. The BOHB-salt used in this study contains a mixture of 50:50 of D-and L-BOHB. In order to ensure a high presence of the active D-form, the total concentration of BOHB added was increased to 16 mM, giving a level of 8 mM D-BOHB. To keep the total concentration of active ketones constant, 8 mM Acac was used, and for the combination of both ketones, the levels were adjusted to 4 mM Acac and 8 mM BOHB (containing 4 mM D-BOHB).
(§9) The Acac available for in vitro use is in the form of a lithium salt. Since lithium itself can affect the viability of cancer cells [Cohen-Harazi et al., Anticancer Res 2020; 40:3831-3837], 8 mM LiCl was used as a control for the 8 mM Acac data point and 4 mM LiCl was used as a control for the 4 mM Acac/8 mM BOHB data.

glioma cell line A172 = experiment: as above; settings: for growth: normoxic, combined experiment 2-6, 16 mM BOHB or 8 mM Acac added separately, FIG. 9
Procedure: as §1, §2, §3, §4, §5, §6, §7, §8, §9

RCC4 renal carcinoma = experiment: Example 2: growth in Medium A-C with or without ketones (CellTiter-Glo); settings: nutrient restricted Medium C, FIG. 11
Procedure: To study the effect of a nutrient restricted ketogenic environment on cancer cell growth in vitro, three different cell culture media were formulated. Medium A was full RPMI1640 medium that the cell lines routinely are cultured in. Medium B was used as an approximation of the conditions found in normal human serum. The levels of glucose, glutamine, serine, glycine and arginine were adjusted to match normal physiological levels found in human serum. These nutrients were selected based on their reported use as energy source and effects on cancer cell metabolic state. Medium C was used to emulate the ketogenic nutrient restricted Cancer Dialysis condition. Here, the levels of the selected nutrients were reduced to half of the physiological levels in Medium B, and the ketone body BOHB was added. […]
All cell lines were purchased from ATCC (ATCC, LGC standards) except for RCC4 that was from Sigma-Aldrich (Merck). […] Optimal seeding density was determined for each cell line in 96-well plates cultured for 3 days in standard cell culture medium. […]
In Medium B, to mimic physiological conditions, the levels of glutamine, serine, glycine, arginine and glucose were set to the median of measured levels in human serum, based on data from the Mayo Clinic Laboratories (https://www.mayocliniclabs.com/test-catalog/Clinical+and+Interpretive/9265). […]

[1] = system: RCC4 (renal cell carcinoma); experiment: Study 2: cell viability (CellTiter-Glo) in DMEM without sodium pyruvate; settings: increase in BOHB concentration (0, 4, 12 mM), no pyruvate, 3 d
Procedure: (§10) Cell lines established from human colon carcinoma (HCT15, NCI-H508 and COLO205), renal cell carcinoma (769-P, 786-O and RCC4) and glioblastoma (LN-18, A-172 and U-118 MG) were selected for the analysis. All cell lines were obtained from American Type Culture Collection (ATCC, LGC standards, UK) except for RCC4 and HCT15 that was purchased from Sigma-Aldrich (Merck, Germany). In addition, primary human renal cell carcinoma (RCC) cells isolated from patient nephrectomies were included in the study. The culture conditions were as recommended by American Type Culture Collection (ATCC) were followed, that is to grow cells in DMEM medium with the addition of 1 mM sodium pyruvate, which was also added to the RPMI-1640 medium in order to keep the conditions more similar 769-P, RCC4, LN-18, A-172, U-118 MG and the primary RCC cells were cultured in DMEM high glucose medium, while 786-O HCT15, NCI-H508 and COLO205 were cultured in RPMI-1640 medium according to the recommendations from ATCC. […]
(§11) CellTiter-Glo Luminescent cell viability assay (Promega) was used as a readout of viability.
(§12) For each cell line, optimal number of cells as determined above were seeded into 96-well plates on day 0. […] After 3d incubation in test condition medium, with daily medium changes, cell viability was determined using the CellTiter-Glo viability test. […]

A172 (glioblastoma) = experiment: as above; settings: increase in BOHB concentration (0, 4, 12 mM), no pyruvate, 3 d
Procedure: as §10, §11, §12

[2] = Medium A, normoxia and hypoxia, 16 mM BOHB alone
[3] = Medium C, 21 and 5% O2, 16 mM BOHB
[4] = Medium A, normoxia and hypoxia, 8 mM Acac compared to 8 mM LiCl control
[5] = Medium B, 21% O2, 8 mM Acac compared to 8 mM LiCl control
[6] = Medium C, 8 mM Acac alone compared to 8 mM LiCl control

| SMILES | growth inhibitory effect (glioma cell line U118MG; [2]) | number of cells, % compared to C-medium without BOHB (glioma cell line U118MG; [3]) | growth inhibitory effect (glioma cell line A172; [2]) | number of cells, % of the amount in Medium B without BOHB (glioma cell line A172; Medium B, hypoxia, 16 mM BOHB) | number of cells, % compared to C-medium without BOHB (glioma cell line A172; [3]) | growth (glioma cell line A172; Medium C) | increased sensitivity to high levels of ketones (RCC4 renal carcinoma) | proliferation of cells (cell viability) [1] | proliferation of cells (cell viability) (A172 (glioblastoma)) | number of cells (glioma cell line U118MG; [4]) | number of cells (glioma cell line U118MG; [5]) | amounts of cells (glioma cell line U118MG; [6]) | number of cells (glioma cell line A172; [4]) | number of cells (glioma cell line A172; [5]) | amounts of cells (glioma cell line A172; [6]) |
| --- | --- | --- | --- | --- | --- | --- | --- | --- | --- | --- | --- | --- | --- | --- | --- |
| CC(O)CC(=O)[O-].[Na+] (racemic) [BOHB, DL-β-Hydroxybutyric acid sodium salt] | no growth inhibitory effect | around 30% | no growth inhibitory effect | approximately 70% | around 30% | trend of reduced growth | not found | suppresses the proliferation of cells | suppresses the proliferation of cells |  |  |  |  |  |  |
| CC(=O)CC(=O)[O-].[Li+] [Acac, Lithium Acetoacetate] |  |  |  |  |  | trend of reduced growth |  |  |  | did not reduce the number of cells further | reduced the number of cells significantly | did not significantly reduce the amounts of cells | did not reduce the number of cells further | reduced the number of cells significantly | did not significantly reduce the amounts of cells |

Reference: patent publication US20250025615A1, “NEW DIALYSIS FLUID” (GAMBRO LUNDIA AB, priority 2021, published 2025)
